Source: ChEMBL document CHEMBL3870336, “The discovery of quinoline based single-ligand human H1 and H3 receptor antagonists” (Bioorg Med Chem Lett, 2016)
The source made the active and inactive calls. No cut-off for these calls is given here.

Tests used:
[1] = Lipophilicity, logD of compound at pH 7.4; type: physicochemical; settings: buffer
Histamine H1 receptor [2] = target: T1, Histamine H1 receptor (Homo sapiens, UniProt P35367); experiment: Antagonist activity at human Histamine H1 receptor expressed in CHO cells assessed as inhibition of histamine-induced calcium flux preincubated for 30 mins followed by histamine addition by Fluo-4-AM dye based FLIPR assay; type: functional, cell-based
Histamine H1 receptor [3] = target: T1, Histamine H1 receptor; experiment: Antagonist activity at human Histamine H1 receptor expressed in CHO cells assessed as inhibition of histamine-induced calcium flux at 100 nM preincubated for 30 mins followed by histamine addition by Fluo-4-AM dye based FLIPR assay; type: functional, cell-based; settings: read-out: pA2 (converted)
[4] = target: T2, Alpha-1B adrenergic receptor (Homo sapiens, UniProt P35368); experiment: Antagonist activity at adrenergic alpha1B receptor (unknown origin) expressed in Rat1 cells assessed as inhibition of phenylephrine-induced Ca2+ flux preincubated for 30 mins followed by phenylephrine addition by Fluo-4-AM-dye based FLIPR assay; type: cell-based
T2 sequence (P35368 whole entry): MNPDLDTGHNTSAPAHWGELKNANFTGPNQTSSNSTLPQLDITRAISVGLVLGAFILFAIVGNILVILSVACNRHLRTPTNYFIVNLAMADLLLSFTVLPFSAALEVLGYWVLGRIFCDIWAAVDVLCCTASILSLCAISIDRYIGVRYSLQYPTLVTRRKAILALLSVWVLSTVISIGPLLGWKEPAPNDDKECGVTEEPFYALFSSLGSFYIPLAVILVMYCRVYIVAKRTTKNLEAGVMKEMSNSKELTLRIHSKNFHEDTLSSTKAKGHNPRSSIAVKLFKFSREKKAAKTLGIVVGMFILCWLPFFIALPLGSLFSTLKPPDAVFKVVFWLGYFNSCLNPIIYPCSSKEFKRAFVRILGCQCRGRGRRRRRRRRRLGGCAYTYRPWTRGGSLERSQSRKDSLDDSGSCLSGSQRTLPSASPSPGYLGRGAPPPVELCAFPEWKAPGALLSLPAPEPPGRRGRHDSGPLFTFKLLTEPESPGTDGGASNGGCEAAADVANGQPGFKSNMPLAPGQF

[5] = target: T3, Alpha-1A adrenergic receptor (Homo sapiens, UniProt P35348); experiment: Antagonist activity at adrenergic alpha1A receptor (unknown origin) expressed in Rat1 cells assessed as inhibition of phenylephrine-induced Ca2+ flux preincubated for 30 mins followed by phenylephrine addition by Fluo-4-AM-dye based FLIPR assay; type: cell-based
T3 sequence (P35348 whole entry): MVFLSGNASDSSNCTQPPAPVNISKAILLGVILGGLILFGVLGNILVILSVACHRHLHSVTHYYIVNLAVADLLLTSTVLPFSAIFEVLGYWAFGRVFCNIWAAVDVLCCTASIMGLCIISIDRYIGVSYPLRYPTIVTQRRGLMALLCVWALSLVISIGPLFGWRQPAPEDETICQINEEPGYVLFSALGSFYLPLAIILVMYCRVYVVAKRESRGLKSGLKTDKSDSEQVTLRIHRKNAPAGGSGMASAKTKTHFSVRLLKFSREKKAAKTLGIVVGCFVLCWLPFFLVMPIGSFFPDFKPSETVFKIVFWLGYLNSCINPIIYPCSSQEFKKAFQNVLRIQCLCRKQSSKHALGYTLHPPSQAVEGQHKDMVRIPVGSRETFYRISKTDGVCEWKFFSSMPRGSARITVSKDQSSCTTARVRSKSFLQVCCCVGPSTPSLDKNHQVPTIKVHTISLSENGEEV

Histamine H3 receptor = Histamine H3 receptor (Homo sapiens, UniProt Q9Y5N1); experiment: Antagonist activity at human Histamine H3 receptor expressed in CHO cell membranes assessed as inhibition of histamine-induced [35S]GTPgammaS binding after 2 to 6 hrs by scintillation proximity assay; type: functional
[6] = target: Voltage-gated inwardly rectifying potassium channel KCNH2 (Homo sapiens, UniProt Q12809); experiment: (§1) Displacement of [3H]-dofetilide from human ERG expressed in CHOK1 cell membranes incubated for 4 hrs in dark by luminescent assay; design: species or system CHO-K1
Histamine H1 receptor [7] = target: T1, Histamine H1 receptor; experiment: Antagonist activity at human Histamine H1 receptor expressed in CHO cells preincubated for 30 mins prior to histamine addition followed by subsequent washout and histamine challenge at 270 mins by Fluo-4 dye based FLIPR assay relative to azelastine; type: cell-based
hERG (KCNH2) = hERG (KCNH2) (Homo sapiens, UniProt Q12809); experiment: as §1; design: species or system CHO-K1; settings: human, CHO-K1 cell membranes expressing human ERG, probe [3H]-dofetilide
Histamine H1 receptor [8] = target: T1, Histamine H1 receptor; experiment: Antagonist activity at human Histamine H1 receptor expressed in CHO cells preincubated for 30 mins prior to histamine addition followed by subsequent washout and histamine challenge at 90 mins by Fluo-4 dye based FLIPR assay relative to azelastine; type: cell-based
[9] = Ratio of drug level in brain to plasma in rat; type: ADME; settings: brain and plasma, read-out: BPR

Histamine H3 receptor, sequence (Q9Y5N1 whole entry): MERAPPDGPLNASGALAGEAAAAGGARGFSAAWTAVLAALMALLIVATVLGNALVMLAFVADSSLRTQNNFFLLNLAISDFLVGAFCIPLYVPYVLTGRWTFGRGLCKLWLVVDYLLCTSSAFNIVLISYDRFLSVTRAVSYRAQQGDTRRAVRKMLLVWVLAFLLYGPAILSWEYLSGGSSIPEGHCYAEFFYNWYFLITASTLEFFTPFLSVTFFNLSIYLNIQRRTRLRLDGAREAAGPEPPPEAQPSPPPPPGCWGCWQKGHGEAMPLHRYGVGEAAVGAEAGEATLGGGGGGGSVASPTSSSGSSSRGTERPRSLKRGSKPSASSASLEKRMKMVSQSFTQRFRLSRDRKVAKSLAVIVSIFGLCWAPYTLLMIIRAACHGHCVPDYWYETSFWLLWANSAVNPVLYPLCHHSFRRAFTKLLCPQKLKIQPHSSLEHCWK
T1 sequence (P35367 whole entry): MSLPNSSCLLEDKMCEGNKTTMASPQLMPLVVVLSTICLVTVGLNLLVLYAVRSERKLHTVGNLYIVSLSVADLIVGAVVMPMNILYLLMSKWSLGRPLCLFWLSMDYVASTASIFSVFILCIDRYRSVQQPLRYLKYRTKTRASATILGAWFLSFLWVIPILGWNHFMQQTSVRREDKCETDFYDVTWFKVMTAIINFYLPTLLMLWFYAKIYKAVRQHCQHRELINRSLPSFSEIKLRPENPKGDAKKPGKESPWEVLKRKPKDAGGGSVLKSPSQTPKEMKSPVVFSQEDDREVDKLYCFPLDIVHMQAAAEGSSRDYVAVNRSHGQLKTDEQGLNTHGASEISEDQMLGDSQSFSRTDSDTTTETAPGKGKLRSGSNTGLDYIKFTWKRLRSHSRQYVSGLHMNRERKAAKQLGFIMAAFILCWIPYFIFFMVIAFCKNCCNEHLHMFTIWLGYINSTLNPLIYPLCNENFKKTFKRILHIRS
Voltage-gated inwardly rectifying potassium channel KCNH2, sequence (Q12809 whole entry): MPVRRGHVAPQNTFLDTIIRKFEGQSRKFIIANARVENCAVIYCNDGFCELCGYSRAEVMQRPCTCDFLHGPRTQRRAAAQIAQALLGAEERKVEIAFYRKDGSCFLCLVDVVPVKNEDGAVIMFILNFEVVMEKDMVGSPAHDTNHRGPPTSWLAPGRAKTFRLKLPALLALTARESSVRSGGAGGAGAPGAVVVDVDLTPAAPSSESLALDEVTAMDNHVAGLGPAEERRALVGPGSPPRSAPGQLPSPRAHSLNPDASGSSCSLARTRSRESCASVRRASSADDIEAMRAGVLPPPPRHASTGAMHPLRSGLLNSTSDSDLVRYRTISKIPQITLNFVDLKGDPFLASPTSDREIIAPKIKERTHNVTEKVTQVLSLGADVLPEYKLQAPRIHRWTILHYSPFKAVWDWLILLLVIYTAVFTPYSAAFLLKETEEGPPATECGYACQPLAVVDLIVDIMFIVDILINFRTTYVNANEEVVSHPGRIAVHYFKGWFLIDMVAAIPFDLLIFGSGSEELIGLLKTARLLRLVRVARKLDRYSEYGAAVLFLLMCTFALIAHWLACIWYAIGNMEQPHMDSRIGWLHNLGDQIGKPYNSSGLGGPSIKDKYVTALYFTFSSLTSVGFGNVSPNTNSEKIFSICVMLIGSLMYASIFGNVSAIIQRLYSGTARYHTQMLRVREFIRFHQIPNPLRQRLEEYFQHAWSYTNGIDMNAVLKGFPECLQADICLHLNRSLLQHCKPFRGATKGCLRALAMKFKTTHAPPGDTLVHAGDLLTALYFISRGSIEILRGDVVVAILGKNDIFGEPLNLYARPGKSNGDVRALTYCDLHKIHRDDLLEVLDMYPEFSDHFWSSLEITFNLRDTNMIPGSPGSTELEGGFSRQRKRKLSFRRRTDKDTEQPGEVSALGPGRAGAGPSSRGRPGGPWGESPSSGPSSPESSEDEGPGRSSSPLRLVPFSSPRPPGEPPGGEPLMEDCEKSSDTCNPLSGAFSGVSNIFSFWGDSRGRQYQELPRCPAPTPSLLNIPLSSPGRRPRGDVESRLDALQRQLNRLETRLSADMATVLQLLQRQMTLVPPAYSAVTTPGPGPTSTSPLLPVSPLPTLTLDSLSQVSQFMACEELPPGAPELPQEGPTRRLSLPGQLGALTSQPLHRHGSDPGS
hERG (KCNH2), sequence (Q12809 whole entry): as above

SMILES	logD [1]	Ki (Histamine H1 receptor [2]) [nM]	Kb (Histamine H1 receptor [3]) [nM]	Ki [4] [nM]	Ki [5] [nM]	Ki (Histamine H3 receptor) [nM]	IC50 [6] [nM]	inhibition (Histamine H1 receptor [7])	IC50 at 4 h (hERG (KCNH2)) [nM]	inhibition (Histamine H1 receptor [8])	Kp [9]
CCCCc1cc(N2CCN(CCc3ccc(OCCCN4CCCCCC4)cc3)CC2)c2nc(CCC(=O)O)ccc2c1	2.3	12.6	1.58	398	316	0.794	2510				
O=c1c2ccccc2c(Cc2ccc(Cl)cc2)nn1C[C@H]1CCCN1CCCCc1ccc(OCCCN2CCCCCC2)cc1 [GSK-1004723]								Active	50.1	Active	
O=C(O)c1cc(N2CCN(CCc3ccc(OCCCN4CCCCCC4)cc3)CC2)c2ncccc2c1	-1	> 2510		> 2000	> 2000	2	39800				
O=C(O)c1cnc2c(N3CCN(CCc4ccc(OCCCN5CCCCCC5)cc4)CC3)cccc2c1	-0.78	398		> 2000	> 2000	1.58	20000				
c1cnc2c(N3CCN(CCCCc4ccc(OCCCN5CCCCCC5)cc4)CC3)cccc2c1	2.2	15.8	5.01	50.1	79.4	0.631	1580	Active		Active	
O=C(O)c1ccc2cccnc2c1N1CCN(CCc2ccc(OCCCN3CCCCCC3)cc2)CC1	-0.12	> 2510		> 2000	> 2000	1.26					
O=C(O)CCc1ccc2cc(Cc3ccccc3)cc(N3CCN(CCc4ccc(OCCCN5CCCCCC5)cc4)CC3)c2n1	1.9	25.1	6.31	251	50.1	0.316	6310			Active	0.15
O=C(O)CCc1cnc2c(N3CCN(CCc4ccc(OCCCN5CCCCCC5)cc4)CC3)cccc2c1	-0.63	39.8		> 2000	> 2000	1.26	31600				
c1cnc2c(N3CCN(CCCc4ccc(OCCCN5CCCCCC5)cc4)CC3)cccc2c1	1.8	79.4		100	31.6	0.398	1000				
O=C(O)c1ccnc2c(N3CCN(CCc4ccc(OCCCN5CCCCCC5)cc4)CC3)cccc12	-0.24	> 2510		> 2000	> 2000	1.58	> 63100				
O=C(O)/C=C/c1ccc2cccc(N3CCN(CCc4ccc(OCCCN5CCCCCC5)cc4)CC3)c2n1	0.34	200		79.4	63.1	1.58	> 63100				
CCc1cc(N2CCN(CCc3ccc(OCCCN4CCCCCC4)cc3)CC2)c2nc(CCC(=O)O)ccc2c1	1	15.8	2.51	> 2000	251	2					
c1cnc2c(N3CCN(CCc4ccc(OCCCN5CCCCCC5)cc4)CC3)cccc2c1	1.9	20	10	15.8	7.94	0.501	7940	Active		Active	> 13
O=C(O)CCc1ccc2cccc(N3CCN(CCc4ccc(OCCCN5CCCCCC5)cc4)CC3)c2n1	0.18	12.6		200	> 2000	1.58	15800				
O=C(O)c1ccc2cccc(N3CCN(CCc4ccc(OCCCN5CCCCCC5)cc4)CC3)c2n1	-0.37	251		> 2000	> 2000	0.501					
